Source: PubChem BioAssay (NCI)
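Compound exposure: 48 hours, 5 concentrations, 96-well plates. TGI: concentration producing complete growth inhibition.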

Experiments:
Assay in all cases: DTP human tumour cell line panel, 48 h
ACHN renal = test system: ACHN renal
NCI-H460 lung = test system: NCI-H460 lung
TK-10 renal = test system: TK-10 renal
HOP-62 NSCLC = test system: HOP-62 NSCLC
SNB-19 CNS = test system: SNB-19 CNS
SK-MEL-28 melanoma = test system: SK-MEL-28 melanoma
MDA-MB-231 breast = test system: MDA-MB-231 breast
HL-60(TB) leukemia = test system: HL-60(TB) leukemia
NCI-H226 lung = test system: NCI-H226 lung
SK-MEL-2 melanoma = test system: SK-MEL-2 melanoma
A498 renal = test system: A498 renal
HCT-15 colon = test system: HCT-15 colon
RXF 393 renal = test system: RXF 393 renal
OVCAR-8 ovarian = test system: OVCAR-8 ovarian
OVCAR-5 ovarian = test system: OVCAR-5 ovarian
RPMI-8226 leukemia = test system: RPMI-8226 leukemia
U251 CNS = test system: U251 CNS
IGROV1 ovarian = test system: IGROV1 ovarian
LOX IMVI melanoma = test system: LOX IMVI melanoma
SF-539 CNS = test system: SF-539 CNS
HOP-92 NSCLC = test system: HOP-92 NSCLC
DU-145 prostate = test system: DU-145 prostate
SK-MEL-5 melanoma = test system: SK-MEL-5 melanoma
SN12C renal = test system: SN12C renal
UACC-257 melanoma = test system: UACC-257 melanoma
MDA-N = test system: MDA-N
UACC-62 melanoma = test system: UACC-62 melanoma
SW-620 colon = test system: SW-620 colon
OVCAR-4 ovarian = test system: OVCAR-4 ovarian
HCT-116 colon = test system: HCT-116 colon
SF-268 CNS = test system: SF-268 CNS
MOLT-4 leukemia = test system: MOLT-4 leukemia
CCRF-CEM leukemia = test system: CCRF-CEM leukemia
SR leukemia = test system: SR leukemia
NCI-H23 lung = test system: NCI-H23 lung
SF-295 CNS = test system: SF-295 CNS
EKVX NSCLC = test system: EKVX NSCLC
MCF7 breast = test system: MCF7 breast
NCI-H522 lung = test system: NCI-H522 lung
T-47D breast = test system: T-47D breast
CAKI-1 renal = test system: CAKI-1 renal
786-0 renal = test system: 786-0 renal
NCI/ADR-RES ovarian = test system: NCI/ADR-RES ovarian
PC-3 prostate = test system: PC-3 prostate
HCC-2998 colon = test system: HCC-2998 colon
COLO 205 colon = test system: COLO 205 colon
HT29 colon = test system: HT29 colon
KM12 colon = test system: KM12 colon
MDA-MB-435 = test system: MDA-MB-435
BT-549 breast = test system: BT-549 breast
HS 578T breast = test system: HS 578T breast
OVCAR-3 ovarian = test system: OVCAR-3 ovarian
M14 melanoma = test system: M14 melanoma
A549 NSCLC = test system: A549 NSCLC
K-562 leukemia = test system: K-562 leukemia
SK-OV-3 ovarian = test system: SK-OV-3 ovarian
UO-31 renal = test system: UO-31 renal
MALME-3M melanoma = test system: MALME-3M melanoma

## O=C(CCc1ccc(O)c(O)c1)OCCc1ccccc1
ACHN renal
  TGI: > 100 µM
NCI-H460 lung
  TGI: > 100 µM
TK-10 renal
  TGI: > 100 µM
HOP-62 NSCLC
  TGI: > 31.6 µM
SNB-19 CNS
  TGI: > 100 µM
SK-MEL-28 melanoma
  TGI: > 100 µM
MDA-MB-231 breast
  TGI: > 100 µM
HL-60(TB) leukemia
  TGI: 17.3 µM
NCI-H226 lung
  TGI: > 100 µM
SK-MEL-2 melanoma
  TGI: > 100 µM
A498 renal
  TGI: > 100 µM
HCT-15 colon
  TGI: > 100 µM
RXF 393 renal
  TGI: > 100 µM
OVCAR-8 ovarian
  TGI: > 100 µM
OVCAR-5 ovarian
  TGI: > 100 µM
RPMI-8226 leukemia
  TGI: > 86.6 µM
U251 CNS
  TGI: > 100 µM
IGROV1 ovarian
  TGI: > 100 µM
LOX IMVI melanoma
  TGI: 54.8 µM
SF-539 CNS
  TGI: 54.5 µM
HOP-92 NSCLC
  TGI: > 100 µM
DU-145 prostate
  TGI: > 100 µM
SK-MEL-5 melanoma
  TGI: > 100 µM
SN12C renal
  TGI: > 100 µM
UACC-257 melanoma
  TGI: > 100 µM
MDA-N
  TGI: 30.4 µM
UACC-62 melanoma
  TGI: > 100 µM
SW-620 colon
  TGI: > 62.2 µM
OVCAR-4 ovarian
  TGI: > 65.6 µM
HCT-116 colon
  TGI: > 100 µM
SF-268 CNS
  TGI: > 100 µM
MOLT-4 leukemia
  TGI: > 83.4 µM
CCRF-CEM leukemia
  TGI: 76.3 µM
SR leukemia
  TGI: > 78.2 µM
NCI-H23 lung
  TGI: > 100 µM
SF-295 CNS
  TGI: > 100 µM
EKVX NSCLC
  TGI: > 100 µM
MCF7 breast
  TGI: > 100 µM
NCI-H522 lung
  TGI: 17.8 µM
T-47D breast
  TGI: > 100 µM
CAKI-1 renal
  TGI: > 100 µM
786-0 renal
  TGI: > 100 µM
NCI/ADR-RES ovarian
  TGI: > 100 µM
PC-3 prostate
  TGI: > 100 µM
HCC-2998 colon
  TGI: > 100 µM
COLO 205 colon
  TGI: > 100 µM
HT29 colon
  TGI: > 100 µM
KM12 colon
  TGI: > 100 µM
MDA-MB-435
  TGI: 40.6 µM
BT-549 breast
  TGI: > 100 µM
HS 578T breast
  TGI: > 100 µM
OVCAR-3 ovarian
  TGI: > 100 µM
M14 melanoma
  TGI: > 100 µM
A549 NSCLC
  TGI: > 100 µM
K-562 leukemia
  TGI: > 57.5 µM
SK-OV-3 ovarian
  TGI: > 100 µM
UO-31 renal
  TGI: > 100 µM
MALME-3M melanoma
  TGI: > 100 µM
